We go through 58 molecules from patent US12581252B2, “Substituted pyrrolo[3,4-b]pyridines as PI3K-α inhibitors” (Relay Therapeutics, Inc., priority 2020, dated 2026).

Sequence of H1047R PIK3CA enzyme (P42336 whole entry H1047R): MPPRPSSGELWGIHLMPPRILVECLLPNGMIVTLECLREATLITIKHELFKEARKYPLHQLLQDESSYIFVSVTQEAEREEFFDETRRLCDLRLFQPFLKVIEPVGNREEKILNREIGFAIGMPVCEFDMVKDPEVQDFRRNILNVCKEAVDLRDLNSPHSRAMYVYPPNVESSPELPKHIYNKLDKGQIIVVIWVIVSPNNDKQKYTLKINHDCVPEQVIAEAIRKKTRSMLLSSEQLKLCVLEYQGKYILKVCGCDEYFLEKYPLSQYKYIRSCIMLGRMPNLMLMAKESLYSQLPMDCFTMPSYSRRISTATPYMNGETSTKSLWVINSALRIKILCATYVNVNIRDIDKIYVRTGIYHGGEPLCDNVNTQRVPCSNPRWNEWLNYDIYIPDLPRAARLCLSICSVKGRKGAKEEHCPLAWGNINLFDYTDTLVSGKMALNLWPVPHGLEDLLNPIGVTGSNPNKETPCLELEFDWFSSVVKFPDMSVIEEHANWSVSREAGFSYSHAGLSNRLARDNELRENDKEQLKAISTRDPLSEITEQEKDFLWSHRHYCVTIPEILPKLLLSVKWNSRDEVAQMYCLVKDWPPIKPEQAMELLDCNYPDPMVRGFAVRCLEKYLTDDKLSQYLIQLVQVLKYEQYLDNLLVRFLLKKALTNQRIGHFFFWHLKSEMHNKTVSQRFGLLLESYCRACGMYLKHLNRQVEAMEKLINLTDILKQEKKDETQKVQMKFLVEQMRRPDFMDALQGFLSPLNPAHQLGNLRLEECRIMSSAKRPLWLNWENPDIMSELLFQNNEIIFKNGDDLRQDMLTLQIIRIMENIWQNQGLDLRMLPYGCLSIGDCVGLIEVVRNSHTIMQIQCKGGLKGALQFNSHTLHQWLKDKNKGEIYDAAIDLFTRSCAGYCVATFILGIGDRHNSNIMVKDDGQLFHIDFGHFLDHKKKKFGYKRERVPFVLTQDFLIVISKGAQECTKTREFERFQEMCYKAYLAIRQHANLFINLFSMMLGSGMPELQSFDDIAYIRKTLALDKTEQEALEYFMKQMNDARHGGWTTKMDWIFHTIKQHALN
Sequence of H1047R PIK3CA enzyme (P27986 whole entry partner): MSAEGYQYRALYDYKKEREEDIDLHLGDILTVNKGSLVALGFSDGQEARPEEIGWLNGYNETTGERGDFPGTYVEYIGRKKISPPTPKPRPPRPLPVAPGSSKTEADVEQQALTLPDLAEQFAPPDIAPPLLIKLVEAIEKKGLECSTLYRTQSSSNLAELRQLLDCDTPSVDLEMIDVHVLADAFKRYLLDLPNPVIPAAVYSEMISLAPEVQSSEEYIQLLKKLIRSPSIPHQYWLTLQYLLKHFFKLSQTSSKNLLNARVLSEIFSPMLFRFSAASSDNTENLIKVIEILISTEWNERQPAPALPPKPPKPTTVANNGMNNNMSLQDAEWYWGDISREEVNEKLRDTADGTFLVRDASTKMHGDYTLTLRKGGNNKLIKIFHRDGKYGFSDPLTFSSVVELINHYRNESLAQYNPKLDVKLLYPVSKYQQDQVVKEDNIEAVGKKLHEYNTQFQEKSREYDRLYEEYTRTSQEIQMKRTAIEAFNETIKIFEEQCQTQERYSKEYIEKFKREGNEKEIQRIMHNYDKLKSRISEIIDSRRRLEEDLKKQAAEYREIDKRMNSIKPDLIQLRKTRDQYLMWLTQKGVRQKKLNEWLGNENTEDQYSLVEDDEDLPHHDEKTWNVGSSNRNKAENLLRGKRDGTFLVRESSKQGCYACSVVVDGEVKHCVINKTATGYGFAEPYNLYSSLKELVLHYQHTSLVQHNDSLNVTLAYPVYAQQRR

The assay has as its target H1047R PIK3CA enzyme (Homo sapiens, UniProt P42336, H1047R). In words: ADP-Glo Biochemical PIK3CA Kinase Assay. (In ADP-Glo the light output rises with the ADP produced.)
Consider `O=C(Nc1cccc2c(=O)[nH]n(Cc3ccccc3)c12)c1csc2ccccc12` [Compound I-118], for which the IC50 (as a rule, the point on the concentration scale where inhibition reaches its midpoint) is 10000 to 100000 nM.

`Cc1ccccc1C1NC(=O)c2c(CCO)ccc(NC(=O)c3csc4ccccc34)c21` (stereo not shown) [Compound I-119] displayed an IC50 not above 100 nM.

Molecule `Cc1ccccc1C1NC(=O)c2c(C(O)CO)ccc(NC(=O)c3csc4ccccc34)c21` (stereo not shown) [Compound I-120] displayed an IC50 of 100 to 500 nM.

In the case of `CNC(=O)c1cc(NC(=O)c2nsc3ccccc23)c2c(c1)C(=O)NC2c1ccccc1C` (stereo not shown) [Compound I-123], the IC50 was not above 100 nM.

`NCc1cc(NC(=O)c2cc(F)cc(C(F)(F)F)c2)c2c(c1)C(=O)NC2c1cc(F)ccc1Cl` (stereo not shown) [Compound I-126] displayed an IC50 not above 100 nM.

Consider `CC(=O)c1cc(NC(=O)c2cc(F)cc(C(F)(F)F)c2)c2c(c1)C(=O)NC2c1cc(F)ccc1Cl` (stereo not shown) [Compound I-127, N-(6-Acetyl-3-(2-chloro-5-fluorophenyl)-1-oxoisoindolin-4-yl)-3-fluoro-5-(trifluoromethyl)benzamide], for which the IC50 is not above 100 nM.

Molecule `CC(C)(O)c1cc(NC(=O)c2cc(F)cc(C(F)(F)F)c2)c2c(c1)C(=O)NC2c1cc(F)ccc1Cl` (stereo not shown) [Compound I-128, N-(3-(2-chloro-5-fluorophenyl)-6-(2-hydroxypropan-2-yl)-1-oxoisoindolin-4-yl)-3-fluoro-5-(trifluoromethyl)benzamide] displayed an IC50 not above 100 nM.

As for `COc1ccc2snc(C(=O)Nc3cccc4c3C(c3ccccc3C)NC4=O)c2c1` (stereo not shown) [Compound I-129], the IC50 is 10000 to 100000 nM.

Take `CC1(c2ccccc2)NC(=O)c2cccc(NC(=O)c3csc4ccccc34)c21` (stereo not shown) [Compound I-130]: the IC50 lay within 10000 to 100000 nM.

Molecule `Cc1ccccc1C1NC(=O)c2cc(CO)cc(NC(=O)c3nsc4ccccc34)c21` (stereo not shown) [Compound I-131, N-[6-(Hydroxymethyl)-3-(2-methylphenyl)-1-oxo-2,3-dihydro-1H-isoindol-4-yl]-1,2-benzothiazole-3-carboxamide] registered an IC50 not above 100 nM.

In turn, `Cc1ccccc1C1NC(=O)c2c(C#N)ccc(NC(=O)c3csc4ccccc34)c21` (stereo not shown) [Compound I-132, N-(7-Cyano-1-oxo-3-(o-tolyl)isoindolin-4-yl)benzo[b]thiophene-3-carboxamide] returned a half-maximal inhibitory concentration (IC50) not above 100 nM.

The molecule `Cc1cc(Cl)ccc1C1NC(=O)c2cccc(NC(=O)c3nsc4ccccc34)c21` (stereo not shown) [Compound I-133] registered an IC50 of 1000 to 10000 nM.

`COCc1cc2c(c(N(C)C(=O)c3nsc4ccccc34)c1)C(c1ccccc1C)NC2=O` (stereo not shown) [Compound I-134, N-(6-(Methoxymethyl)-1-oxo-3-(o-tolyl)isoindolin-4-yl)-N-methylbenzo[d]isothiazole-3-carboxamide]: the concentration for half-maximal inhibition (IC50) lay within 10000 to 100000 nM.

In turn, `CC(=O)c1cc(NC(=O)c2nsc3ccccc23)c2c(c1)C(=O)NC2c1cc(F)ccc1Cl` (stereo not shown) [Compound I-135] came in with an IC50 of 500 to 1000 nM.

For `CC(C)(O)c1cc(NC(=O)c2nsc3ccccc23)c2c(c1)C(=O)NC2c1cc(F)ccc1Cl` (stereo not shown) [Compound I-136], the IC50 is not above 100 nM.

On to `O=C1NC(c2cc(F)ccc2C(F)F)c2c(NC(=O)c3nsc4ccccc34)cccc21` (stereo not shown) [Compound I-137], for which the IC50 is not above 100 nM.

The molecule `O=C(Nc1cccc2c1C(c1cc(F)ccc1C(F)F)NC2=O)c1cc(F)cc(C(F)(F)F)c1` (stereo not shown) [Compound I-138] yielded an IC50 not above 100 nM.

As for `Cc1ccccc1C1NC(=O)c2c(CN)ccc(NC(=O)c3csc4ccccc34)c21` (stereo not shown) [Compound I-140], the IC50 was not above 100 nM.

As for `Cc1ccccc1C1NC(=O)c2cc(-c3cnoc3)cc(NC(=O)c3csc4ccccc34)c21` (stereo not shown) [Compound I-141], the IC50 is not above 100 nM.

Molecule `Cc1ccccc1C1NC(=O)c2nccc(NC(=O)c3cc(F)cc(C(F)(F)F)c3)c21` (stereo not shown) [Compound I-142] had an IC50 of 100 to 500 nM.

The molecule `Cc1ccccc1C1NC(=O)c2c(N(C)C)ncc(NC(=O)c3nsc4ccccc34)c21` (stereo not shown) [Compound I-143] displayed an IC50 of 100 to 500 nM.

In turn, `Cc1ccccc1C1NC(=O)c2cccc(NCc3nsc4ccccc34)c21` (stereo not shown) [Compound I-145] showed an IC50 of 10000 to 100000 nM.

In turn, `Cc1ccccc1C1NC(=O)c2nccc(NC(=O)N3CCc4ccccc43)c21` (stereo not shown) [Compound I-147, N-(7-oxo-5-(o-tolyl)-6,7-dihydro-5H-pyrrolo[3,4-b]pyridin-4-yl)indoline-1-carboxamide] had an IC50 of 100 to 500 nM.

Take `Cc1ccccc1C1NC(=O)c2nccc(NC(=O)N3CCc4c(F)cc(F)cc43)c21` (stereo not shown) [Compound I-148]: the IC50 is 500 to 1000 nM.

`Cc1ccccc1C1NC(=O)c2c(C(N)=O)ccc(NC(=O)c3csc4ccccc34)c21` (stereo not shown) [Compound I-149, 7-(Benzo[b]thiophene-3-carboxamido)-3-oxo-1-(o-tolyl)isoindoline-4-carboxamide] registered a 50% inhibitory concentration (IC50) not above 100 nM.

`CNC(=O)c1ccc(NC(=O)c2csc3ccccc23)c2c1C(=O)NC2c1ccccc1C` (stereo not shown) [Compound I-150] came in with an IC50 not above 100 nM.

In turn, `Cc1ccccc1C1NC(=O)c2cccc(NC(=O)c3ncc4ccc(Cl)cn34)c21` (stereo not shown) [Compound I-151] gave a 50% inhibitory concentration (IC50) of 10000 to 100000 nM.

`Cc1ccccc1-n1[nH]c(=O)c2cccc(NC(=O)c3nsc4ccc(F)cc34)c21` [Compound I-152] returned an IC50 of 1000 to 10000 nM.

Take `Cc1ccccc1C1NC(=O)c2c(C)ccc(NC(=O)c3csc4ccccc34)c21` (stereo not shown) [Compound I-153, N-(7-Methyl-1-oxo-3-(o-tolyl)isoindolin-4-yl)benzo[b]thiophene-3-carboxamide]: the IC50 was in the range of 100 to 500 nM.

The molecule `O=C1NC(c2cc(F)ccc2Cl)c2c(NC(=O)c3nsc4ccccc34)cc(CO)cc21` (stereo not shown) [Compound I-154] showed an IC50 not above 100 nM.

In turn, `CNC(=O)c1cc(NC(=O)c2cc(F)cc(C(F)(F)F)c2)c2c(c1)C(=O)NC2c1ccccc1C` (stereo not shown) [Compound I-156] came in with an IC50 not above 100 nM.

For the molecule `O=C1NC(c2cc(Cl)ccc2Cl)c2c(NC(=O)c3nsc4ccccc34)cccc21` (stereo not shown) [Compound I-157], the IC50 was not above 100 nM.

`O=C1NC(c2cccnc2Cl)c2c(NC(=O)c3nsc4ccccc34)cccc21` (stereo not shown) [Compound I-158] showed an IC50 of 1000 to 10000 nM.

`O=C1NC(c2cc(F)c(F)cc2Cl)c2c(NC(=O)c3nsc4ccccc34)cccc21` (stereo not shown) [Compound I-159] had an IC50 not above 100 nM.

The molecule `O=C1NC(c2cnccc2Cl)c2c(NC(=O)c3nsc4ccccc34)cccc21` (stereo not shown) [Compound I-160] came in with an IC50 of 500 to 1000 nM.

For `Cn1cc(-c2cc(NC(=O)c3cc(F)cc(C(F)(F)F)c3)c3c(n2)C(=O)NC3c2cc(F)ccc2Cl)cn1` (stereo not shown) [Compound I-162], the IC50 was not above 100 nM.

For `CNC(=O)c1cc(NC(=O)c2nsc3ccccc23)c2c(c1)C(=O)N[C@H]2c1ccccc1C` [Compound I-163], the IC50 is not above 100 nM.

`Cc1ccccc1[C@H]1NC(=O)c2cc(C(=O)NCC(F)F)cc(NC(=O)c3nsc4ccccc34)c21` [Compound I-165] had an IC50 of 100 to 500 nM.

`O=C1N[C@@H](c2cc(F)ccc2C(F)F)c2c(NC(=O)c3nsc4ccccc34)cccc21` [Compound I-168] displayed an IC50 not above 100 nM.

The molecule `O=C(Nc1cccc2c1[C@@H](c1cc(F)ccc1C(F)F)NC2=O)c1cc(F)cc(C(F)(F)F)c1` [Compound I-169] displayed an IC50 of 1000 to 10000 nM.

`O=C(Nc1cccc2c1[C@H](c1cc(F)ccc1C(F)F)NC2=O)c1cc(F)cc(C(F)(F)F)c1` [Compound I-170]: the IC50 is not above 100 nM.

In the case of `O=C(Nc1ccnc2c1C(c1ccccc1Cl)NC2=O)c1cc(F)cc(Cl)c1` (stereo not shown) [Compound I-171], the IC50 lay in the range of 1000 to 10000 nM.

Molecule `O=C1NC(c2ccccc2Cl)c2c(NC(=O)c3nsc4ccccc34)ccnc21` (stereo not shown) [Compound I-172] gave an IC50 of 100 to 500 nM.

In turn, `O=C(Nc1ccnc2c1C(c1cccc(F)c1F)NC2=O)c1cc(F)cc(Cl)c1` (stereo not shown) [Compound I-173] showed a half-maximal inhibitory concentration (IC50) of 1000 to 10000 nM.

For `O=C(Nc1ccnc2c1C(c1cccc(F)c1F)NC2=O)c1cc(F)cc(C(F)(F)F)c1` (stereo not shown) [Compound I-174], the IC50 was 1000 to 10000 nM.

Regarding `O=C1NC(c2cccc(F)c2F)c2c(NC(=O)c3nsc4ccccc34)ccnc21` (stereo not shown) [Compound I-175], the IC50 was in the range of 500 to 1000 nM.

`Cc1ccccc1C1NC(=O)c2ccnc(NC(=O)c3nsc4ccccc34)c21` (stereo not shown) [Compound I-176, N-[3-(2-Methylphenyl)-1-oxo-1H,2H,3H-pyrrolo[3,4-c]pyridin-4-yl]-1,2-benzothiazole-3-carboxamide] registered an IC50 of 1000 to 10000 nM.

In the case of `Cc1ccccc1C1NC(=O)c2nccc(NC(=O)N3CCc4ccc(F)cc43)c21` (stereo not shown) [Compound I-177], the IC50 lay within 500 to 1000 nM.

`Cc1ccccc1-n1[nH]c(=O)c2cccc(NC(=O)c3cc(F)cc(C(F)(F)F)c3)c21` [Compound I-178] showed an IC50 of 500 to 1000 nM.

Turning to `Cc1ccccc1C1NC(=O)c2cccc(NC(=O)C34CCC(CC3)CC4)c21` (stereo not shown) [Compound I-179, N-(1-Oxo-3-(o-tolyl)isoindolin-4-yl)bicyclo[2.2.2]octane-1-carboxamide], the IC50 was in the range of 1000 to 10000 nM.

As to `Cc1ccccc1C1NC(=O)c2cccc(NC(=O)c3ncc4c(F)cc(F)cn34)c21` (stereo not shown) [Compound I-180, 6,8-Difluoro-N-(1-oxo-3-(o-tolyl)isoindolin-4-yl)imidazo[1,5-a]pyridine-3-carboxamide], the IC50 lay within 10000 to 100000 nM.

As to `Cc1ccccc1C1NC(=O)c2cc(CCO)cc(NC(=O)c3csc4ccccc34)c21` (stereo not shown) [Compound I-181, N-[6-(2-Hydroxyethyl)-3-(2-methylphenyl)-1-oxo-2,3-dihydro-1H-isoindol-4-yl]-1-benzothiophene-3-carboxamide], the IC50 was not above 100 nM.

`O=C(Nc1cc(-c2cn[nH]c2)nc2c1C(c1cc(F)ccc1Cl)NC2=O)c1cc(F)cc(Cl)c1` (stereo not shown) [Compound I-182] returned an IC50 of 100 to 500 nM.

In turn, `CSc1nc(NC(=O)c2cc(F)cc(C(F)(F)F)c2)c2c(n1)C(=O)NC2c1ccccc1Cl` (stereo not shown) [Compound I-183] came in with an IC50 of 1000 to 10000 nM.

Regarding `Nc1nc(NC(=O)c2cc(F)cc(C(F)(F)F)c2)c2c(n1)C(=O)NC2c1ccccc1Cl` (stereo not shown) [Compound I-184], the IC50 lay within 500 to 1000 nM.

`O=C(Nc1cc(CO)cc2c1C(c1cc(F)ccc1Cl)NC2=O)c1cc(F)cc(C(F)(F)F)c1` (stereo not shown) [Compound I-185]: the IC50 is not above 100 nM.

`Cn1cc(-c2cc(NC(=O)c3cc(F)cc(C(F)(F)F)c3)c3c(n2)C(=O)N[C@@H]3c2cc(F)ccc2Cl)cn1` [Compound I-186]: the IC50 lay in the range of 500 to 1000 nM.

Turning to `Cn1cc(-c2cc(NC(=O)c3cc(F)cc(C(F)(F)F)c3)c3c(n2)C(=O)N[C@H]3c2cc(F)ccc2Cl)cn1` [Compound I-187], the IC50 is not above 100 nM.
